Measured values published in patent US8507506B2, “Theophylline derivative inhibits osteoporosis” (Kaohsiung Medical University, priority 2011, dated 2013).
Marks after values point to notes of the source that are not given here.

Legend:
Assay type in all cases: cell-based
[1] = tested on: osteoclast-like cells, OCL; experiment: Intracellular calcium (fura-2/AM), RANKL-induced calcium influx; settings: 1 μM and 10 μM, FIGS. 14 and 15
[2] = tested on: MMP-9 enzyme activity of RAW264.7 cells; experiment: Gelatin zymography, enzyme activity of MMP-9 induced by RANKL; settings: 10 μM, RANKL 24 hours, FIG. 21
Experimental: KMUP-1 influences there major up-stream signal transduction pathways which are related to RANK/RANKL. Western blot is used to estimate the amount of matrix metalloproteinase (MMP)-2 and MMP-9 which are related to the dissolution of osteoclast-like cells, and the enzyme activity of MMP-2 and MMP-9 are estimated via Gelatin Zymography. […] After 24 hours reaction, the reaction fluid was centrifuged (13,000 rpm, 4° C., 20 minutes), and then the supernatant was stored in −80° C. • b) 10% gel preparation. 10 mg gelatin was added by 1 ml ddH2O and then was heated in water bath until the solution was clear. • c) Concentrations of the proteins were examined by Bio-Red DC Protein Assay. After knowing the concentrations, the proteins were diluted to specific concentrations by adding ddH2O. One forth volume of the diluted proteins of sample buffer was added into the diluted proteins. After shaking, the diluted proteins could be added into wells of the gel. Subsequently, 1× running buffer was added with the gel, and then the gel was run at 100 V for 10 minutes until the proteins were driven to the intersection between a loading gel and a running gel. Then, the voltage was swopped to 200 V for 60 minutes. • d) After electrophoresis, the loading gel was discarded, and the left gel was washed by TritonX-100 buffer for 30 minutes in room temperature twice. […]

RAW264.7 cells = experiment: MTT assay, proliferation induced by RANKL; settings: RAW264.7, 5 μM, 7.5 μM, 10 μM, FIG. 1
Experimental: Cells were plated onto 96-well plates at a density of 10^3 cells per well. After 24 hours incubation, the different concentrations of the different drugs were administrated into the plates. […] Subsequently, the medium was removed, and 100 μl/well isopropanol was added to solved formazan. The plates were shaken for 15 minutes and stood for 15 minutes, and then the absorbance was measured at wavelength of 540 nm and 630 nm. The ratio of the absorbance of treated cells relative to that of the control cells was calculated and expressed as a percentage of cell survival.

[3] = tested on: Fra-1 mRNA in RAW264.7 cells; experiment: RT-PCR, RANKL-induced mRNA expression of Fra-1; settings: for RANKL-induced mRNA expression level of Fra-1: RAW264.7 cells, 24 hours, CTL 100%, mean ± SEM
Excerpt: (§1) The culture medium was discarded. […] [table] f) Running • A.

[4] = tested on: IL-6 secretion by RAW264.7 cells; experiment: ELISA, RANKL-induced secretion of IL-6; settings: RAW264.7, ELISA, FIG. 7(A)
Experimental: (§2) Under RANKL stimulation, mononuclear RAW264.7 cells can secrete pro-inflammatory cytokines such as TNF-α, IL-1, IL-6, etc. ELISA is used to measure that KMUP-1 influences RANKL to induce the secretion of pro-inflammatory cytokines. […] 10^5 cells were plated per well in 24-well plates. […] After 24 hours reaction, the reaction fluid was centrifuged (13,000 rpm, 4° C., 20 minutes), and then the supernatant was tasted by ELISA kit (R&D system and eBioscience™) to detect the amount of TNF-α, IL-1β, IL-6, and IL-10. The experimental process is followed with the instructions of the kit.

[5] = tested on: TNF-α secretion by RAW264.7 cells; experiment: ELISA, RANKL-induced secretion of TNF-α; settings: RAW264.7, ELISA, FIG. 6
Experimental: as §2

[6] = tested on: TRAF6 mRNA in RAW264.7 cells; experiment: RT-PCR, RANKL-induced mRNA expression of TRAF6; settings: for RANKL-induced mRNA expression level of TRAF6: RAW264.7 cells, 24 hours, CTL 100%, mean ± SEM
Excerpt: as §1

[7] = tested on: JNK phosphorylation in RAW264.7 cells; experiment: Western blot, phosphorylation of JNK induced by RANKL; settings: 7.5 μM and 10 μM, RANKL 15 minutes, FIG. 10
Experimental: MAP kinases including ERK, JNK and p38 are stimulated by RANKL to be phosphorylized and further influence the down-stream key transcription factors which induce the differentiation of osteoclast-like cells such as c-Fos, NFATc1, etc. Before estimating the drug effect, 10 ng/ml RANKL are used to induce the phosphorylation of ERK, JNK and p38 at different time points. […] It is shown that KMUP-1 can reduce the activation of MAP kinases induced by RANKL. […] The proteins were collected by scraping and were centrifuged (13,000 rpm, 4° C., 30 minutes). The supernatant was stored in an eppendorf in −80° C. • c) Concentrations of the proteins were examined by Bio-Red DC Protein Assay. After knowing the concentrations, the proteins were diluted to specific concentrations by adding ddH2O. One forth volume of the diluted proteins of sample buffer was added into the diluted proteins and was put in boiled water for 5 min and then was chilled on ice for 5 minutes. After short time centrifugation, the diluted proteins could be injected into wells of a gel. The gel was run at 100 V for 10 minutes until the proteins were driven to the intersection between a loading gel and a running gel. Then, the voltage was swopped to 200 V for 40 minutes. • d) A PVDF membrane was immersed in Methanol for 2 minutes. After two washes in ddH2O, the membrane was immersed in transfer buffer for 15 minutes. […]

[8] = 10 ng/ml RANKL, summary of Table 1

Cn1c(=O)c2c(ncn2CCN2CCN(c3ccccc3Cl)CC2)n(C)c1=O [KMUP-1, 7-[2-[4-(2-Chlorophenyl)piperazin-1-yl]ethyl] theophylline]
RANKL-induced extracellular calcium influx [1]: can inhibit it
enzyme activity of MMP-9 induced by RANKL [2]: can reduce the enzyme activity of MMP-2 and MMP-9
cell proliferation induced by RANKL (MTT assay) (RAW264.7 cells): can inhibit the cell proliferation induced by RANKL
effect on mRNA expression of Fra-1 induced by RANKL (in words) [3, 8]: inhibits the mRNA expression
RANKL-induced mRNA expression level of Fra-1 ([3]; RANKL 10 ng/ml + KMUP-1 1 μM): 244.1 ± 38.9% ^b
RANKL-induced mRNA expression level of Fra-1 ([3]; RANKL 10 ng/ml + KMUP-1 2.5 μM): 285.1 ± 44.8% ^b
RANKL-induced mRNA expression level of Fra-1 ([3]; RANKL 10 ng/ml + KMUP-1 5 μM): 310.1 ± 56.3% ^b
RANKL-induced mRNA expression level of Fra-1 ([3]; RANKL 10 ng/ml + KMUP-1 7.5 μM): 238.7 ± 49.9% ^b
RANKL-induced mRNA expression level of Fra-1 ([3]; RANKL 10 ng/ml + KMUP-1 10 μM): 265.2 ± 64.1% ^b
RANKL-induced secretion of IL-6 [4]: presents a dose dependent inhibition phenomenon
RANKL-induced secretion of TNF-α [5]: presents a dose dependent inhibition phenomenon
effect on mRNA expression of TRAF6 induced by RANKL (in words) [6, 8]: not obviously inhibits
RANKL-induced mRNA expression level of TRAF6 ([6]; RANKL 10 ng/ml + KMUP-1 1 μM): 100.2 ± 4.7%
RANKL-induced mRNA expression level of TRAF6 ([6]; RANKL 10 ng/ml + KMUP-1 2.5 μM): 123.8 ± 2.3%
RANKL-induced mRNA expression level of TRAF6 ([6]; RANKL 10 ng/ml + KMUP-1 5 μM): 125.9 ± 2.9% ^
RANKL-induced mRNA expression level of TRAF6 ([6]; RANKL 10 ng/ml + KMUP-1 7.5 μM): 128.4 ± 6.5% ^
RANKL-induced mRNA expression level of TRAF6 ([6]; RANKL 10 ng/ml + KMUP-1 10 μM): 127.2 ± 1.3% ^
phosphorylation of JNK induced by RANKL [7]: can efficiently inhibit the phosphorylation of ERK, JNK and p38 induced by RANKL
